What was measured:
Experiment in all cases: Chemokine glycan microarray binding assay
Settings in all cases: maximum RFU set as 100% binding, average across 2 glycan concentrations and 3 chemokine dilutions (n=6)
[1] = target: T1, CXCL8 (Homo sapiens, UniProt P10145)
T1 sequence (P10145 21-99): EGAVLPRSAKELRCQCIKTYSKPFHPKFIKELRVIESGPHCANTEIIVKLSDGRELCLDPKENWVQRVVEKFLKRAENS
Protocol: (§1) Microarray Studies: The compounds of the present invention were covalently immobilized on epoxy group collated glass slides. Slides were rehydrated with dH2O and incubated for 30 min in a staining dish with 50° C. prewarmed ethanolamine (0.05 M) in Tris-HCl (0.1 M, pH 9.0) to block the remaining reactive epoxy groups on the slide surface, then washed with 50° C. prewarmed dH2O. Slides were centrifuged at 200 g for 3 min, then fitted with the ProPlate Multi-Array 16-well slide module (Grace Bio-lab P37001) to divide into the subarrays (blocks). Slides were washed with PBST (0.1% Tween 20), aspirated, and blocked with 200 μL/subarray of blocking buffer (PBS pH 7.3+1% w/v ovalbumin) for 1 h at RT with gentle shaking. Next, the blocking solution was aspirated and 100 μL/block of primary chemokines diluted in PBS pH 7.3+1% w/v ovalbumin were incubated with gentle shaking for 2 hours at RT. Slides were washed 4 times with PBST, then with PBS (without Tween-20) for 2 min. Bound antibodies were detected by incubating with biotinylated secondary detections (1 ng/μL) diluted in PBS, 200 μL/block at RT for 1 h. Slides were washed 4 times with PBST, then with PBS (without Tween-20) for 2 min and biotinylated antibodies were detected with Cy3-SA ([…]). Slides were washed 4 times with PBST, then with PBS for 10 min followed by removal from the ProPlate Multi-Array slide module and immediately dipping in a staining dish with dH2O for 10 min with shaking. The slides were then centrifuged at 200 g for 3 min, and the dry slides immediately scanned. Binding was tested at three serial dilutions, then detected with the relevant biotinylated secondary antibody (1 μg/mL) followed by Cy3-strepavidin (1.5 μg/mL). Arrays were scanned and RFUs were calculated of chemokines binding to 100 μM glycans printed at four replicates. Rank binding of chemokines (each at three dilutions) to glycans printed at four replicates each was calculated and summarized in Table 1. For each binding assay per printed block, the maximum RFU was determined and set as 100% binding. Then, binding to all other glycans in the same block was ranked in comparison to the maximal binding, and average rank binding (and SEM) for each glycan across the three examined concentrations of each chemokine was calculated. This analysis allowed to compare the glycan-binding profiles of the different chemokines and dissect their binding preferences.
(§2) Table 1. Chemokine glycan microarray binding assay. Binding was tested at 3 serial dilutions, then detected with the relevant biotinylated secondary antibody (1 μg/ml) followed by Cy3-Strepavidin (1.5 μg/ml) (Table SX). Arrays were scanned, relative fluorescent units (RFU) obtained, and maximum RFU determined and set as 100% binding. Then rank binding (per printed glycan per concentration, per each chemokine dilution, per printed block) was determined. Since each glycans was printed at 2 concentration, 100% binding was set separately for each concentration. Then, binding to all the other glycans at the same concentration was ranked in comparison to the maximal binding, and the average rank binding and SEM for each glycan across the two glycan concentrations and three examined dilutions of each chemokine was calculated (n=6, 2 glycan concentrations across 3 chemokine dilutions). This analysis allowed to compare the glycan binding profiles of the different chemokines and dissect their binding preferences. The mean rank is shown as a heatmap of all the examined binding assays together (red highest, blue lowest and white 50th percentile of ranking).

[2] = target: T2, CCL28 (Homo sapiens, UniProt Q9NRJ3)
T2 sequence (Q9NRJ3 20-127): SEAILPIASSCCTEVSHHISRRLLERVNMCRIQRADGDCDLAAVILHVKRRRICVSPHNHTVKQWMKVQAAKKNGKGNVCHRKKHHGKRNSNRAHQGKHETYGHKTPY
Protocol: as §1, §2

[3] = target: CCL7 (Homo sapiens, UniProt P80098)
Chain of CCL7 (P80098 24-99, species assumed): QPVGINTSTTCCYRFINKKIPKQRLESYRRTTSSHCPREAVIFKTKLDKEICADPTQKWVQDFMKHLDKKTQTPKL
Protocol: as §1, §2

[4] = target: CXCL12 (Homo sapiens, UniProt P48061)
Chain of CXCL12 (P48061 22-93, species assumed): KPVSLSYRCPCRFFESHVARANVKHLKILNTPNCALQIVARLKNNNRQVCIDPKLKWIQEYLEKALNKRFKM
Protocol: as §1, §2

[5] = target: T3, CCL5 (Homo sapiens, UniProt P13501)
T3 sequence (P13501 24-91): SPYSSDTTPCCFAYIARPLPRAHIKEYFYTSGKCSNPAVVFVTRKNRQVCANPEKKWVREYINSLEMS
Protocol: as §1, §2

[6] = target: CCL2 (Homo sapiens, UniProt P13500)
Chain of CCL2 (P13500 24-99, species assumed): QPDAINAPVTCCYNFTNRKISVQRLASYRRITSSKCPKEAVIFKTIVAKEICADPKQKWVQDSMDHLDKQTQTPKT
Protocol: as §1, §2

[7] = target: CCL13 (Homo sapiens, UniProt Q99616)
Chain of CCL13 (Q99616 17-98, species assumed): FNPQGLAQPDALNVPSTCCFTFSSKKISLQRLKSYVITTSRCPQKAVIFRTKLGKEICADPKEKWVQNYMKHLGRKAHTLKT
Protocol: as §1, §2

[8] = target: T4, CCL21 (Homo sapiens, UniProt O00585)
T4 sequence (O00585 24-134): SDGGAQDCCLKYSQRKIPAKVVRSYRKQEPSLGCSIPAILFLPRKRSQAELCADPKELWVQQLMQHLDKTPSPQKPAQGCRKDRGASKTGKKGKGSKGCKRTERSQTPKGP
Protocol: as §1, §2

[9] = target: T5, CXCL10 (Homo sapiens, UniProt P02778)
T5 sequence (P02778 22-98): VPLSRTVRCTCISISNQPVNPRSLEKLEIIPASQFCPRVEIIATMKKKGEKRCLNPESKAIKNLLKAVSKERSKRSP
Protocol: as §1, §2

Molecule	mean rank binding to CXCL8 [1]	mean rank binding to CCL28 [2]	mean rank binding to CCL7 [3]	mean rank binding to CXCL12 [4]	mean rank binding to CCL5 [5]	mean rank binding to CCL2 [6]	mean rank binding to CCL13 [7]	mean rank binding to CCL21 [8]	mean rank binding to CXCL10 [9]
NCCOCCO[C@@H]1OC(C(=O)O)[C@@H](O)C(O)C1O (stereo partly drawn) [Example 1, Ethaoxy-2-aminoethoxyl-O-α-L-idopyranoside Uronic Acid]	17%	46%	30%	62%	2%	4%	74%	52%	47%
NCCCO[C@@H]1O[C@@H](C(=O)O)[C@@H](O[C@H]2O[C@H](CO)[C@@H](O[C@@H]3O[C@@H](C(=O)O)[C@@H](O[C@H]4O[C@H](CO)[C@@H](O)[C@H](OS(=O)(=O)O)[C@H]4N)[C@H](O)[C@H]3O)[C@H](OS(=O)(=O)O)[C@H]2N)[C@H](O)[C@H]1O [Example 22, 3-Aminopropyl-O-[(2-amino-3-O-sulfonato-2-deoxy-α-D-glucopyranosyl)-(1→4)-O-(α-L-idopyranosyluronate)-(1→4)-O-(2-amino-3-O-sulfonato-2-deoxy-α-D-glucopyranosyl)]-(1→4)-O-α-L-idopyranosiduronate]	51%	62%	78%	84%	20%	28%	58%	83%	65%
3-Aminopropyl-O-[(2-amino-2-deoxy-α-D-glucopyranosyl)-(1→4)-O-(2-O-sulfonato-α-L-idopyranosyluronate)-(1→4)-O-(2-amino-2-deoxy-α-D-glucopyranosyl)]-(1→4)-O-2-O-sulfonato-α-L-idopyranosiduronate [Example 13]	37%	43%	56%	69%	31%	13%	70%	69%	52%

Now from value to molecule:

mean rank binding to CXCL8 [1]	mean rank binding to CCL28 [2]	mean rank binding to CCL7 [3]	mean rank binding to CXCL12 [4]	mean rank binding to CCL5 [5]	mean rank binding to CCL2 [6]	mean rank binding to CCL13 [7]	mean rank binding to CCL21 [8]	mean rank binding to CXCL10 [9]	Molecule
95%	84%	79%	82%	80%	67%	67%	80%	74%	NCCOCCO[C@@H]1O[C@@H](C(=O)O)[C@@H](O[C@@H]2O[C@@H](C(=O)O)[C@@H](O[C@@H]3O[C@@H](C(=O)O)[C@@H](O[C@@H]4O[C@@H](C(=O)O)[C@@H](OS(=O)(=O)O)[C@H](O)[C@H]4O)[C@H](O)[C@H]3O)[C@H](O)[C@H]2O)[C@H](O)[C@H]1O [Example 11, Ethoxy-2-aminoethoxyl-O-(4-O-sulfonato)-α-L-idopyranosyl Uronic Acid-α(1→4)-α-L-Idopyranosyl Uronic Acid-α(1→4)-α-L-idopyranosyl Uronic Acid-α(1→4)-α-L-idopyranoside Uronic Acid]
10%	39%	40%	75%	5%	1%	70%	81%	48%	CC(=O)N[C@H]1[C@@H](O[C@H]2[C@H](O)[C@@H](O)[C@H](OCCCN)O[C@H]2C(=O)O)O[C@H](COP(=O)(O)O)[C@@H](O[C@@H]2O[C@@H](C(=O)O)[C@@H](O[C@H]3O[C@H](COP(=O)(O)O)[C@@H](O)[C@H](O)[C@H]3NC(C)=O)[C@H](O)[C@H]2O)[C@@H]1O [Example 26]
5%	38%	11%	25%	3%	1%	45%	25%	15%	NCCCO[C@@H]1OC(C(=O)O)[C@@H](O[C@H]2OC(COS(=O)(=O)O)[C@@H](O[C@@H]3OC(C(=O)O)[C@@H](O[C@H]4OC(COS(=O)(=O)O)[C@@H](O)[C@H](O)C4N)C(O)[C@@H]3O)[C@H](O)C2N)C(O)[C@@H]1O (stereo partly drawn) [Example 23, 3-Aminopropyl-O-[(2-amino-6-O-sulfonato-2-deoxy-α-D-glucopyranosyl)-(1→4)-O-(α-L-idopyranosyluronate)-(1→4)-O-(2-amino-6-O-sulfonato-2-deoxy-α-D-glucopyranosyl)]-(1→4)-O-α-L-idopyranosiduronate]
